The target in this assay is T1, human S1P1 receptor (Homo sapiens, UniProt P21453).
T1 construct: expressed in transfected cells; host or cells: unnamed cell line stably expressing the S1P1 receptor; membranes were used
T1 sequence (P21453 whole entry): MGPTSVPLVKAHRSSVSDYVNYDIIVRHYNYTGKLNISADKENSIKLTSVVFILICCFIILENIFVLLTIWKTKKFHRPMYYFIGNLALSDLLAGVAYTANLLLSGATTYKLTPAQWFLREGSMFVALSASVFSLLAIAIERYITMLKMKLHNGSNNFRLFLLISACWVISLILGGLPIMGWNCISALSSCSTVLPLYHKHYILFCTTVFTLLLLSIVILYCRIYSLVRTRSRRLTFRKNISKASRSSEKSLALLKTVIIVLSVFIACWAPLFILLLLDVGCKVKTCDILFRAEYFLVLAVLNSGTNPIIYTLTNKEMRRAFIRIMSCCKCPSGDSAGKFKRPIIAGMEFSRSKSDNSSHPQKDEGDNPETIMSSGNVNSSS
The experiment in a line: GTP γ35S binding assay for S1P1 activity. Format: biochemical. The note with it: membranes of cells stably expressing the S1P1 receptor, agonist activity potency. Here is the method: Compounds were synthesized and tested for S1P1 activity using the GTP γ^35S binding assay. These compounds may be assessed for their ability to activate or block activation of the human S1P1 receptor in cells stably expressing the S1P1 receptor. GTP γ^35S binding was measured in the medium containing (mM) HEPES 25, pH 7.4, MgCl2 10, NaCl 100, dithitothreitol 0.5, digitonin 0.003%, 0.2 nM GTP γ^35S, and 5 μg membrane protein in a volume of 150 μl. Test compounds were included in the concentration range from 0.08 to 5,000 nM unless indicated otherwise. Membranes were incubated with 100 μM 5′-adenylylimmidodiphosphate for 30 min, and subsequently with 10 μM GDP for 10 min on ice. Drug solutions and membrane were mixed, and then reactions were initiated by adding GTP γ^35S and continued for 30 min at 25° C. Reaction mixtures were filtered over Whatman GF/B filters under vacuum, and washed three times with 3 mL of ice-cold buffer (HEPES 25, pH7.4, MgCl2 10 and NaCl 100). Filters were dried and mixed with scintillant, and counted for ^35S activity using a β-counter. Agonist-induced GTP γ^35S binding was obtained by subtracting that in the absence of agonist. Binding data were analyzed using a non-linear regression method. In case of antagonist assay, the reaction mixture contained 10 nM S1P in the presence of test antagonist at concentrations ranging from 0.08 to 5000 nM.
A word on the EC50: it is the concentration giving half of the maximal effect. Take `Cc1ccc(CC(CCOc2ccc(CN3CC(C(=O)O)C3)cc2)c2cccc(Cl)c2)cc1C` (stereo not shown) [1-{4-[3-(3-chlorophenyl)-4-(3,4-dimethylphenyl)butoxy]benzyl}azetidine-3-carboxylic acid]: the EC50 amounted to 50.2 nM. The result for `Cc1ccc(CC(CCCOc2ccc(CN3CC(C(=O)O)C3)cc2)c2ccsc2)cc1C` (stereo not shown) [1-(4-{[5-(3,4-dimethylphenyl)-4-(3-thienyl)pentyl]oxy}benzyl)azetidine-3-carboxylic acid] reads 5.7 nM; that for `Cc1ccc(CC(CCCOc2ccc(CN3CC(C(=O)O)C3)cc2)c2cc(F)cc(F)c2)cc1C` (stereo not shown) [1-(4-{[4-(3,5-difluorophenyl)-5-(3,4-dimethylphenyl)pentyl]oxy}benzyl)azetidine-3-carboxylic acid], 1.4 nM; that for `Cc1ccc(CC(CCCOc2ccc(CN3CC(C(=O)O)C3)cc2)c2cccc(F)c2F)cc1C` (stereo not shown) [1-(4-{([4-(2,3-difluorophenyl)-5-(3,4-dimethylphenyl)pentyl]oxy}benzyl)azetidine-3-carboxylic acid], 1.37 nM.

The values are drawn from patent publication US8623856B2, “Phenoxy-azetidine derivatives as sphingosine 1-phosphate (S1P) receptor modulators” (Allergan, Inc., priority 2012, dated 2014).
